ChEMBL document CHEMBL5209585, “FFN206 based assay for SLC18A2 using HEK-293 SLC18A2 OE cells” (2022)
pEC50, pIC50: −log10 of the molar value.

Biological target: Synaptic vesicular amine transporter (Homo sapiens, UniProt Q05940)
Assay: Substrate uptake and inhibition of the Vesicular Amine Transporter 2 (VMAT2, SLC18A2) as assessed by uptake of a fluorescent substrate (FFN206) in HEK-293 JumpIN-SLC18A2 cells (PubChem AID: 1794817)
Assay type: functional, cell-based, HEK293

Chain of Synaptic vesicular amine transporter (Q05940 whole entry): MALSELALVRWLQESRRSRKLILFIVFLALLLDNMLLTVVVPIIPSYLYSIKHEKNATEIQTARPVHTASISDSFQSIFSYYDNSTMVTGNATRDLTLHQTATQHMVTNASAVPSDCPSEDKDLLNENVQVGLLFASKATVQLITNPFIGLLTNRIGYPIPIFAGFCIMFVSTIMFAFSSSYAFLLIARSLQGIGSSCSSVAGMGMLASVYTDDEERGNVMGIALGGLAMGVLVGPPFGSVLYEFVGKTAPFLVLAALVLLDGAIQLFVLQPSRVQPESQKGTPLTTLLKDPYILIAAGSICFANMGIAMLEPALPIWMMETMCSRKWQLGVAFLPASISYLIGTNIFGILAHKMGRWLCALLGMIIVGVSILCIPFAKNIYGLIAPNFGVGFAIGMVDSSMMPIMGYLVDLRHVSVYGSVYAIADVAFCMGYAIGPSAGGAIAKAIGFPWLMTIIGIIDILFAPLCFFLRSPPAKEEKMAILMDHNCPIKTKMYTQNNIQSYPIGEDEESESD

| Structure (SMILES) | pEC50 | pIC50 |
| --- | --- | --- |
| CNc1ccc2c(CCN)cc(=O)oc2c1 | 5.45 |  |
| COc1cc2c(cc1OC)C1CC(=O)C(CC(C)C)CN1CC2 (configuration not stated) [TETRABENAZINE] |  | 7.70 |
